Several values for one entry are separate records, joined by “and”; a condition that tells them apart may be missing. Equal entries are not always repeated. Where two headings read alike, the source gives them in different places.
What was measured:
AEP [1] = biological target: T1, AEP (Rattus norvegicus, UniProt Q9R0J8); assay: Titration assay of Aβ42-induced AEP activation in primary neurons (immunoblotting); format: cell-based; conditions: 2 μM pre-aggregated Aβ42, 24 h
T1 construct: endogenous in cells; host or cells: primary rat cortical neurons
T1 sequence (Q9R0J8 18-435): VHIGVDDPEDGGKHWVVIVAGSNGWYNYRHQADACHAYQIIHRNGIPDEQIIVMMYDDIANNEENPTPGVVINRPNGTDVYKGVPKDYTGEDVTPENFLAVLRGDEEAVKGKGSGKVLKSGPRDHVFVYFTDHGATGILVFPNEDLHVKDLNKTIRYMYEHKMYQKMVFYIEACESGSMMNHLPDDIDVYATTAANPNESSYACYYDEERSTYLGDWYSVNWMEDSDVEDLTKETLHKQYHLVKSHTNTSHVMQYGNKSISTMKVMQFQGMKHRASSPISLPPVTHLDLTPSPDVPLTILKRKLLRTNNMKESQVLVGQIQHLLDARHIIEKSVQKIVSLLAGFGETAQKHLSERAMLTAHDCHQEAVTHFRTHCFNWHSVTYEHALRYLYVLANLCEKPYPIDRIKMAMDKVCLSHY

[2] = Stability in human liver microsomes; format: in vitro ADME
[3] = Stability in mouse liver microsomes; format: in vitro ADME; conditions: read-out: Stability-Microsomes T1/2
[4] = Stability in human hepatocytes; format: in vitro ADME
[5] = Stability in human plasma; format: in vitro ADME; conditions: read-out: Stability-Plasma T1/2
[6] = Plasma protein binding, human; format: in vitro ADME
[7] = Plasma protein binding, mouse; format: in vitro ADME
[8] = PAMPA-BBB permeability assay; format: in vitro ADME; conditions: read-out: Permeability-PAMPA-BBB Pe
P-glycoprotein (MDR1) = biological target: T2, P-glycoprotein (MDR1) (Homo sapiens, UniProt P08183); assay: MDR1-MDCKII permeability assay (P-glycoprotein efflux); format: in vitro ADME; conditions: dog, MDCK-MDR1
T2 construct: expressed in transfected cells; host or cells: MDCKII
T2 sequence (P08183 whole entry): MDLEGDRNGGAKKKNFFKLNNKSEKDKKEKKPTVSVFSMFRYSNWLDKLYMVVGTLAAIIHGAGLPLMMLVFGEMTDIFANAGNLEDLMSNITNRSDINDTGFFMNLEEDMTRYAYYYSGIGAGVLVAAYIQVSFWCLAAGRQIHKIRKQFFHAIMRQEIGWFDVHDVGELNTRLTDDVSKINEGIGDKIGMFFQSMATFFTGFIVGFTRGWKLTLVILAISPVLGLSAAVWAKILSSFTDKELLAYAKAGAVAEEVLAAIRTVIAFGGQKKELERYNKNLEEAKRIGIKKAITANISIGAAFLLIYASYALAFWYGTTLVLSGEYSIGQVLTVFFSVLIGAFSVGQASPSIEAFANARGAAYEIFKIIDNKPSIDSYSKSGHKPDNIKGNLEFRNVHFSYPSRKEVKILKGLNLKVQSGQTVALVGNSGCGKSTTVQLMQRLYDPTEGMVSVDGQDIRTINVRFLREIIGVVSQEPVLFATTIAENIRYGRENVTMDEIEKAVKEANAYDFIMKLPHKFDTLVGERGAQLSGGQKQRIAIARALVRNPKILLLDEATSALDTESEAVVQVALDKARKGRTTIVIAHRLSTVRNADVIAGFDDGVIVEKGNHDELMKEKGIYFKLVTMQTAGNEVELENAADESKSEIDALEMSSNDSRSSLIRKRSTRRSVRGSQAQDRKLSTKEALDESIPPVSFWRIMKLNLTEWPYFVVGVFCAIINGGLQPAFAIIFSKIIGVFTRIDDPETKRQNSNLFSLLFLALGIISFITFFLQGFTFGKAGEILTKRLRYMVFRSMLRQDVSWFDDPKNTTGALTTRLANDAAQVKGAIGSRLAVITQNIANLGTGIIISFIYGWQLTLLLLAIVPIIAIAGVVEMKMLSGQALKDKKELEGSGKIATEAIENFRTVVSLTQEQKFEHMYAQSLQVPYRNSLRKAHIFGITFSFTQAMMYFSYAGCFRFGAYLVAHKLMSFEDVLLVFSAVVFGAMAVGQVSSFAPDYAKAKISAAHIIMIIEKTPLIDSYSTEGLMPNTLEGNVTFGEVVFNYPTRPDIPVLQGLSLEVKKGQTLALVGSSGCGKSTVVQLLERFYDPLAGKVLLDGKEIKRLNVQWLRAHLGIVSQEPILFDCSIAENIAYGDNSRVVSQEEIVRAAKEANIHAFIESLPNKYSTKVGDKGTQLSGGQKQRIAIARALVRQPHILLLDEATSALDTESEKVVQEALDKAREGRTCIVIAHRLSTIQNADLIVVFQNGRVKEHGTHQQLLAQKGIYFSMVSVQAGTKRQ

hERG K+ channel = hERG K+ channel (Homo sapiens, UniProt Q12809); assay: hERG inhibition assay
hERG K+ channel, sequence (Q12809 whole entry): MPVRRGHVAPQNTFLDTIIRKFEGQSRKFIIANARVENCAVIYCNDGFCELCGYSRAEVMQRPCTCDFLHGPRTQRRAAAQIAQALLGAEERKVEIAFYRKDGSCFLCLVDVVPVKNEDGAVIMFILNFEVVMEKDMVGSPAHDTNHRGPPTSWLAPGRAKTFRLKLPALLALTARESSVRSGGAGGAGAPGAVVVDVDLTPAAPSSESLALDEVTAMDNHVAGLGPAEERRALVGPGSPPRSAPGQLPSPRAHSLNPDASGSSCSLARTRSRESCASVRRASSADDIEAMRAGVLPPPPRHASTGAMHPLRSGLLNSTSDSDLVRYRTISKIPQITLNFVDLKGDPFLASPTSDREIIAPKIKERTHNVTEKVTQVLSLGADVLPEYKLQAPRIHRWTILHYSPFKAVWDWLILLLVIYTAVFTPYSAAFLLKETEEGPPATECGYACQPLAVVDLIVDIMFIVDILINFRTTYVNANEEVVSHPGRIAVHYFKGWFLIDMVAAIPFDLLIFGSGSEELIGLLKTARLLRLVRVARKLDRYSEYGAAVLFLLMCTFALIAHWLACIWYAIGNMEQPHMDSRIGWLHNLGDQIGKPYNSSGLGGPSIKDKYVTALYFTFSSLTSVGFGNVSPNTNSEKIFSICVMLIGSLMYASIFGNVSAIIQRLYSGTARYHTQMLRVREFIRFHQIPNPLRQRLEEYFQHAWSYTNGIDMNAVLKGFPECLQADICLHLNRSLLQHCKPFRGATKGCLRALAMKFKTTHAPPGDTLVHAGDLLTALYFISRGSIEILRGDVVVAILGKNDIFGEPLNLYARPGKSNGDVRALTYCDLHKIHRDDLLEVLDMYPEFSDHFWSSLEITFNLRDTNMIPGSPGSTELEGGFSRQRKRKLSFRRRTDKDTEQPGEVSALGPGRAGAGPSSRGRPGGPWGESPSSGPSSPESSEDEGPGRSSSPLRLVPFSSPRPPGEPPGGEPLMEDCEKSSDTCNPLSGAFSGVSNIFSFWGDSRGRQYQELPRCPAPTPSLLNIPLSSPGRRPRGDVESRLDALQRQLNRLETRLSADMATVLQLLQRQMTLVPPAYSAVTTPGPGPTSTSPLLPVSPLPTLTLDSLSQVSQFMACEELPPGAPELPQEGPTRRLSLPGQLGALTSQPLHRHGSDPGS

[9] = In vivo pharmacokinetics in CD-1 (ICR) mice, plasma and brain, LC-MS/MS; conditions: mouse
Description: (§1) Blood and brain tissues were collected at 0, 0.08, 0.25, 0.5, 1, 2, 4, and 8 h post-administration. For acute pharmacodynamic (PD) assessments, male and female 3xTg mice received oral doses of NP-11a-isopropyl at 7.5 mg/kg or 15 mg/kg, and blood and brain samples were collected 2 h after treatment.

AEP [10] = biological target: T3, AEP (Mus musculus, UniProt O89017); assay: Acute PD in 3xTg mice: brain AEP enzymatic activity and immunoblotting; format: in vivo; conditions: 2 h
T3 construct: from tissue; host or cells: brain / hippocampus of 3xTg mice
T3 sequence (O89017 18-435): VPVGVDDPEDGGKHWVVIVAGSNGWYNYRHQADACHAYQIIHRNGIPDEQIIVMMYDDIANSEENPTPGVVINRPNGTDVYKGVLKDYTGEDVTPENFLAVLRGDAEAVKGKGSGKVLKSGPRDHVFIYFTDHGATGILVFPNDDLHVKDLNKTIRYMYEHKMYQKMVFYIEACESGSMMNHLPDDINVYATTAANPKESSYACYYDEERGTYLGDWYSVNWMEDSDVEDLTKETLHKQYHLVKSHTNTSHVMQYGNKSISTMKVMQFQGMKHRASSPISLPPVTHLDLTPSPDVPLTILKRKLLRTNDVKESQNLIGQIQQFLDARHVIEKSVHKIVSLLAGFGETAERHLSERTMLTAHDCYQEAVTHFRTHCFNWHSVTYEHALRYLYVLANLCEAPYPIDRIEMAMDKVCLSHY

AEP [11] = biological target: T3, AEP; assay: Chronic one-month oral treatment of 3xTg mice: AEP activation and substrate cleavage; format: in vivo; conditions: 7.5 mg/kg P.O. daily
Aβ42 = assay: Aβ ELISA of brain tissue of 3xTg mice; format: in vivo, mouse; conditions: 7.5 mg/kg P.O. daily, one month
3xTg mice = assay: Y-maze test in 3xTg mice; format: in vivo, mouse; conditions: 7.5 mg/kg P.O. daily, one month
Description: as §1
The Y-maze test was employed to evaluate spatial working memory and spontaneous alternation behavior, a measure of natural exploratory pattern integrity. The apparatus comprised three symmetrical opaque arms (A, B, C; 30 cm length × 8 cm width × 15 cm height) intersecting at 120° angles to form a Y-shaped configuration. Mice were habituated to the maze during a 5-min acclimatization period to minimize novelty-induced anxiety. Following habituation, spontaneous exploration was recorded for 8 min using an overhead camera, with all trials conducted under consistent low-light conditions to reduce environmental stress. EthoVision XT 12 software (Noldus, Wageningen, The Netherlands) quantified total arm entries, entry sequences, and alternation patterns (consecutive entries into three distinct arms without repetition). The maze was thoroughly cleaned with 70 % ethanol between trials to eliminate olfactory cues.

[12] = male, CD-1 (ICR), plasma, iv, I.V. 2 mg/kg
[13] = male, CD-1 (ICR), plasma, po, P.O. 5 mg/kg

CC(C)Nc1nnc(Nc2cc(CO)c(N3CCOCC3)c3nonc23)s1 [11a-isopropyl]
Aβ42-induced AEP activation (AEP [1]): suppressed AEP activation in a dose-dependent manner | microsomal CLint [2]: 3.6 µL/min/mg | half-life ([2]; read-out: Stability-Microsomes T1/2): > 240 min | half-life [3]: > 27.7 min | hepatocyte CLint [4]: 22 µL/min/1e6 cells | half-life ([4]; read-out: Stability-Hepatocytes T1/2): 63.1 min | half-life [5]: > 480 min | Plasma Protein F u, plasma(%) [6]: 13.8% | Plasma Protein F u, plasma(%) [7]: 20.4% | fraction unbound ([7]; plasma, as a fraction, from Table S1, read-out: Unbound plasma fraction (fu, plasma)): 0.204 | Papp [8]: 8.4 ×10⁻⁶ cm/s | Papp A→B (P-glycoprotein (MDR1); a-b, first value in brackets): 0.568 ×10⁻⁶ cm/s | Papp B→A (P-glycoprotein (MDR1); b-a, second value in brackets): 61.9 ×10⁻⁶ cm/s | IC50 (hERG K+ channel): > 10 µM | MRT last ([9]; male, CD-1 (ICR), brain, iv, I.V. 2 mg/kg, read-out: Brain MRT (0-t)): 143 min | Tmax ([9]; male, CD-1 (ICR), brain, iv, I.V. 2 mg/kg, read-out: Brain Tmax): 4.8 min | MRT last ([9]; male, CD-1 (ICR), brain, po, P.O. 5 mg/kg, read-out: Brain MRT (0-t)): 130 min | Tmax ([9]; male, CD-1 (ICR), brain, po, P.O. 5 mg/kg, read-out: Brain Tmax): 11.6 min | half-life ([9]; male, CD-1 (ICR), brain, iv, 2 mg/kg, I.V. 2 mg/kg, read-out: Brain t1/2 (converted)): ~120 min | half-life ([9]; male, CD-1 (ICR), brain, po, 5 mg/kg, P.O. 5 mg/kg, read-out: Brain t1/2 (converted)): 144 min | clearance ([9]; male, CD-1 (ICR), plasma, iv, 2 mg/kg, I.V. 2 mg/kg, read-out: Plasma CLz (converted)): 13.8 mL/min/kg | half-life ([9]; male, CD-1 (ICR), plasma, iv, 2 mg/kg, I.V. 2 mg/kg, read-out: Plasma t1/2 (converted)): 53.4 min | bioavailability ([9]; male, CD-1 (ICR), plasma, oral, 5 mg/kg, P.O. 5 mg/kg vs I.V. 2 mg/kg, read-out: F* (%) oral bioavailability): ~67.2% | half-life ([9]; male, CD-1 (ICR), plasma, po, 5 mg/kg, P.O. 5 mg/kg, read-out: Plasma t1/2 (converted)): ~43.8 min | AUC(0-t) [9, 12]: 2410 ng·h/mL | Cmax [9, 12]: 5160 ng/mL | MRT last ([9]; male, CD-1 (ICR), plasma, iv, I.V. 2 mg/kg, read-out: Plasma MRT (0-t)): 33.4 min | Tmax ([9]; male, CD-1 (ICR), plasma, iv, I.V. 2 mg/kg, read-out: Plasma Tmax): 4.8 min | AUC(0-t) [9, 13]: 4050 ng·h/mL | Cmax [9, 13]: 4770 ng/mL | MRT last ([9]; male, CD-1 (ICR), plasma, po, P.O. 5 mg/kg, read-out: Plasma MRT (0-t)): 50.9 min | Tmax ([9]; male, CD-1 (ICR), plasma, po, P.O. 5 mg/kg, read-out: Plasma Tmax): 8.22 min | Brain AUC (0-t) ([9]; I.V. 2 mg/kg, 2 mg/kg): approximately 921.71 ng/mL·h | Brain Cmax ([9]; I.V. 2 mg/kg, 2 mg/kg): 306.77 ng/mL | Brain AUC (0-t) ([9]; P.O. 5 mg/kg, 5 mg/kg): ~385.36 ng·h/mL and 385.358 ng·h/mL | Brain Cmax ([9]; P.O. 5 mg/kg, 5 mg/kg): 321.25 ng/mL and 321.248 ng/mL | AEP enzymatic activity in the brain (AEP [10]; acute P.O. 7.5 and 15 mg/kg, dose-dependent): substantially inhibited | Active AEP band intensity, hippocampus immunoblotting (AEP [10]; acute P.O.): further suppressed | AEP activation, APP N585 and Tau N368 fragmentation, hippocampus immunoblotting (AEP [11]): gradually reduced | Aβ42 level in brain, ELISA (Aβ42): significantly reduced | Cognitive function in the Y maze (3xTg mice): significantly improved

From PMC12664493, “Asparagine endopeptidase (AEP) inhibitor formulation via zein-based nanoparticle improves the therapeutic efficacy toward Alzheimer's disease” (Neurotherapeutics, 2025)
